Measured values as given in ChEMBL document CHEMBL4507310, “Data for DCP probe A-1211212” (2021).

Legend:
[1] = biological target: Delta-type opioid receptor (Homo sapiens) (UniProt P41143); conditions: Compound concentration 10.0 uM
[2] = biological target: Ephrin type-B receptor 1 (Homo sapiens) (UniProt P54762); conditions: Compound concentration 1000.0 nM
[3] = biological target: Serine/threonine-protein kinase D1 (Homo sapiens) (UniProt Q15139); conditions: Compound concentration 1000.0 nM
[4] = biological target: Serine/threonine-protein kinase Chk2 (Homo sapiens) (UniProt O96017); conditions: Compound concentration 1000.0 nM
[5] = biological target: Ephrin type-A receptor 7 (Homo sapiens) (UniProt Q15375); conditions: Compound concentration 1000.0 nM
[6] = biological target: Focal adhesion kinase 1 (Homo sapiens) (UniProt Q05397); conditions: Compound concentration 1000.0 nM
[7] = biological target: Tyrosine-protein kinase Yes (Homo sapiens) (UniProt P07947); conditions: Compound concentration 1000.0 nM
[8] = biological target: MAP/microtubule affinity-regulating kinase 4 (Homo sapiens) (UniProt Q96L34); conditions: Compound concentration 1000.0 nM
[9] = tested on: Tyrosine-protein kinase ABL1 (Homo sapiens), P00519 [T315I]; conditions: Compound concentration 1000.0 nM
[10] = biological target: Muscarinic acetylcholine receptor M3 (Homo sapiens) (UniProt P20309); assay: M3 (h) Eurofins-Cerep binding assay; design: ligand concentration 0.2 nM; conditions: filed as antagonist, Compound concentration 10.0 uM
[11] = biological target: Cyclin-dependent kinase 4 (Homo sapiens) (UniProt P11802); conditions: Compound concentration 1000.0 nM
[12] = biological target: Mitogen-activated protein kinase kinase kinase 5 (Homo sapiens) (UniProt Q99683); conditions: Compound concentration 1000.0 nM
[13] = biological target: Casein kinase II subunit alpha (Homo sapiens) (UniProt P68400); conditions: Compound concentration 1000.0 nM
[14] = biological target: 5-hydroxytryptamine receptor 2B (Homo sapiens) (UniProt P41595); conditions: Compound concentration 10.0 uM
[15] = biological target: Membrane-associated tyrosine- and threonine-specific cdc2-inhibitory kinase (Homo sapiens) (UniProt Q99640); conditions: Compound concentration 1000.0 nM
[16] = biological target: Proto-oncogene tyrosine-protein kinase Src (Homo sapiens) (UniProt P12931); conditions: Compound concentration 1000.0 nM
[17] = biological target: Serine/threonine-protein kinase BRSK1 (Homo sapiens) (UniProt Q8TDC3); conditions: Compound concentration 1000.0 nM
[18] = biological target: Serine/threonine-protein kinase 4 (Homo sapiens) (UniProt Q13043); conditions: Compound concentration 1000.0 nM
[19] = tested on: Phosphatidylinositol 4,5-bisphosphate 3-kinase catalytic subunit alpha isoform (Homo sapiens), P42336 [E545K]; conditions: Compound concentration 1000.0 nM
[20] = tested on: Tyrosine-protein kinase ABL1 (Homo sapiens), P00519 [H396P]; conditions: Compound concentration 1000.0 nM
[21] = biological target: Tumor necrosis factor (Homo sapiens) (UniProt P01375); assay: TNF-alpha (h) Eurofins-Cerep binding assay; design: ligand concentration 0.1 nM; conditions: filed as agonist, Compound concentration 10.0 uM
[22] = biological target: Serine/threonine-protein kinase MRCK alpha (Homo sapiens) (UniProt Q5VT25); conditions: Compound concentration 1000.0 nM
[23] = biological target: Sigma non-opioid intracellular receptor 1 (Homo sapiens) (UniProt Q99720); conditions: Compound concentration 10.0 uM
[24] = biological target: 5'-AMP-activated protein kinase catalytic subunit alpha-1 (Homo sapiens) (UniProt Q13131); conditions: Compound concentration 1000.0 nM
[25] = biological target: Ephrin type-B receptor 6 (Homo sapiens) (UniProt O15197); conditions: Compound concentration 1000.0 nM
[26] = biological target: Insulin receptor (Homo sapiens) (UniProt P06213); conditions: Compound concentration 1000.0 nM
Rattus norvegicus = organism: Rattus norvegicus; assay: SKCa channel Eurofins-Cerep binding assay; design: ligand concentration 0.007 nM; conditions: filed as antagonist, Compound concentration 10.0 uM
[27] = tested on: Receptor-type tyrosine-protein kinase FLT3 (Homo sapiens), P36888 [UNDEFINED MUTATION]; conditions: Compound concentration 1000.0 nM
[28] = biological target: T1, 5-hydroxytryptamine receptor 2C (Homo sapiens) (UniProt P28335); assay: 5-HT2C (h) Eurofins-Cerep binding assay; design: ligand concentration 1 nM; conditions: filed as antagonist, Compound concentration 10.0 uM
T1 sequence (whole entry): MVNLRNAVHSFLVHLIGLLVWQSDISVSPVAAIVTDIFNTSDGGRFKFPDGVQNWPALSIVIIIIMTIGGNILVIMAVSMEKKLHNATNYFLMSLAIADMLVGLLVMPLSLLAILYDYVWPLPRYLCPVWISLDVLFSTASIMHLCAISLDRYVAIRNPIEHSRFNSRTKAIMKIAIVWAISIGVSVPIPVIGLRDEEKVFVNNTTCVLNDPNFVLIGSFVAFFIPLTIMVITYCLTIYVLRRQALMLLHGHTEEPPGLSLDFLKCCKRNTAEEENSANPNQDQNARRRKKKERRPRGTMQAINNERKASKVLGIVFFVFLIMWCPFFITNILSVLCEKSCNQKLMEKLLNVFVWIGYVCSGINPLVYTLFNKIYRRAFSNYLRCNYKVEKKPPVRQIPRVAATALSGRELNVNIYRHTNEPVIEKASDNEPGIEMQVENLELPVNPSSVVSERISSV

[29] = biological target: Mitogen-activated protein kinase 14 (Homo sapiens) (UniProt Q16539); conditions: Compound concentration 1000.0 nM
[30] = biological target: Proto-oncogene tyrosine-protein kinase ROS (Homo sapiens) (UniProt P08922); conditions: Compound concentration 1000.0 nM
[31] = biological target: Serine/threonine-protein kinase Sgk1 (Homo sapiens) (UniProt O00141); conditions: Compound concentration 1000.0 nM
[32] = biological target: Tyrosine-protein kinase ABL2 (Homo sapiens) (UniProt P42684); conditions: Compound concentration 1000.0 nM
[33] = biological target: Serine/threonine-protein kinase Nek6 (Homo sapiens) (UniProt Q9HC98); conditions: Compound concentration 1000.0 nM
[34] = biological target: Vasopressin V1a receptor (Homo sapiens) (UniProt P37288); assay: V1 a (h) Eurofins-Cerep binding assay; design: ligand concentration 0.3 nM; conditions: filed as agonist, Compound concentration 10.0 uM
[35] = biological target: Tyrosine-protein kinase ABL1 (Homo sapiens) (UniProt P00519); conditions: Compound concentration 1000.0 nM
[36] = biological target: Cyclin-dependent kinase 2 (Homo sapiens) (UniProt P24941); conditions: Compound concentration 1000.0 nM
[37] = biological target: Cyclin-dependent kinase 18 (Homo sapiens) (UniProt Q07002); conditions: Compound concentration 1000.0 nM
[38] = biological target: B2 bradykinin receptor (Homo sapiens) (UniProt P30411); assay: B2 (h) Eurofins-Cerep binding assay; design: ligand concentration 0.3 nM; conditions: filed as agonist, Compound concentration 10.0 uM

Chain of Mitogen-activated protein kinase 14 (Homo sapiens) (Q16539 whole entry): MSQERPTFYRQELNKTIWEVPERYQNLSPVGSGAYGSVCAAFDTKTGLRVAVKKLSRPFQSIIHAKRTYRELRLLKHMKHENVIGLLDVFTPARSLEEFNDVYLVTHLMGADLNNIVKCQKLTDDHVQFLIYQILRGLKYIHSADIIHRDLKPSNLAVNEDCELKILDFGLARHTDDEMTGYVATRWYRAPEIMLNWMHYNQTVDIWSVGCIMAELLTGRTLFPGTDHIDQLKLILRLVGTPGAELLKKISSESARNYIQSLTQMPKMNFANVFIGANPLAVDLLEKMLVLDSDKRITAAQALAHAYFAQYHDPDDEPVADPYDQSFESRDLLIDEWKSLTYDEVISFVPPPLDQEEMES
Chain of Casein kinase II subunit alpha (Homo sapiens) (P68400 whole entry, looked up): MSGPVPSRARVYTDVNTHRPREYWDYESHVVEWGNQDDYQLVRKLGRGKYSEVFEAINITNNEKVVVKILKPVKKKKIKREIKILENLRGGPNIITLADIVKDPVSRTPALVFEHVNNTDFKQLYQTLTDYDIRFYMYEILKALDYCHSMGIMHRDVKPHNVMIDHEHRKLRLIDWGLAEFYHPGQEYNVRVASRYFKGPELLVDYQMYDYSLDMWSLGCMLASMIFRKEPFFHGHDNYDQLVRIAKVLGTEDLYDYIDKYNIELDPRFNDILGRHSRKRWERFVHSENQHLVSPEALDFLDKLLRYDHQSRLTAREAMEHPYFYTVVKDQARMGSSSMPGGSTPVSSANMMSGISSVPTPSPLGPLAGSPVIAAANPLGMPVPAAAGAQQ
Chain of Cyclin-dependent kinase 4 (Homo sapiens) (P11802 whole entry): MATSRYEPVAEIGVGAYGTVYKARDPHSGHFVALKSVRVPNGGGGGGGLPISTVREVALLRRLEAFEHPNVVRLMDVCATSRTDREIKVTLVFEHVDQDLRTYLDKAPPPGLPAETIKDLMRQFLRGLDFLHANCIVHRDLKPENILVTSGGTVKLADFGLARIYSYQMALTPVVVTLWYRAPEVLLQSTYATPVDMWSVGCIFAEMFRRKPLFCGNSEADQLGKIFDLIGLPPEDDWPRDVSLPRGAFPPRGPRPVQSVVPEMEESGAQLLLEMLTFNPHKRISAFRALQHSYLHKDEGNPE
Chain of Mitogen-activated protein kinase kinase kinase 5 (Homo sapiens) (Q99683 whole entry): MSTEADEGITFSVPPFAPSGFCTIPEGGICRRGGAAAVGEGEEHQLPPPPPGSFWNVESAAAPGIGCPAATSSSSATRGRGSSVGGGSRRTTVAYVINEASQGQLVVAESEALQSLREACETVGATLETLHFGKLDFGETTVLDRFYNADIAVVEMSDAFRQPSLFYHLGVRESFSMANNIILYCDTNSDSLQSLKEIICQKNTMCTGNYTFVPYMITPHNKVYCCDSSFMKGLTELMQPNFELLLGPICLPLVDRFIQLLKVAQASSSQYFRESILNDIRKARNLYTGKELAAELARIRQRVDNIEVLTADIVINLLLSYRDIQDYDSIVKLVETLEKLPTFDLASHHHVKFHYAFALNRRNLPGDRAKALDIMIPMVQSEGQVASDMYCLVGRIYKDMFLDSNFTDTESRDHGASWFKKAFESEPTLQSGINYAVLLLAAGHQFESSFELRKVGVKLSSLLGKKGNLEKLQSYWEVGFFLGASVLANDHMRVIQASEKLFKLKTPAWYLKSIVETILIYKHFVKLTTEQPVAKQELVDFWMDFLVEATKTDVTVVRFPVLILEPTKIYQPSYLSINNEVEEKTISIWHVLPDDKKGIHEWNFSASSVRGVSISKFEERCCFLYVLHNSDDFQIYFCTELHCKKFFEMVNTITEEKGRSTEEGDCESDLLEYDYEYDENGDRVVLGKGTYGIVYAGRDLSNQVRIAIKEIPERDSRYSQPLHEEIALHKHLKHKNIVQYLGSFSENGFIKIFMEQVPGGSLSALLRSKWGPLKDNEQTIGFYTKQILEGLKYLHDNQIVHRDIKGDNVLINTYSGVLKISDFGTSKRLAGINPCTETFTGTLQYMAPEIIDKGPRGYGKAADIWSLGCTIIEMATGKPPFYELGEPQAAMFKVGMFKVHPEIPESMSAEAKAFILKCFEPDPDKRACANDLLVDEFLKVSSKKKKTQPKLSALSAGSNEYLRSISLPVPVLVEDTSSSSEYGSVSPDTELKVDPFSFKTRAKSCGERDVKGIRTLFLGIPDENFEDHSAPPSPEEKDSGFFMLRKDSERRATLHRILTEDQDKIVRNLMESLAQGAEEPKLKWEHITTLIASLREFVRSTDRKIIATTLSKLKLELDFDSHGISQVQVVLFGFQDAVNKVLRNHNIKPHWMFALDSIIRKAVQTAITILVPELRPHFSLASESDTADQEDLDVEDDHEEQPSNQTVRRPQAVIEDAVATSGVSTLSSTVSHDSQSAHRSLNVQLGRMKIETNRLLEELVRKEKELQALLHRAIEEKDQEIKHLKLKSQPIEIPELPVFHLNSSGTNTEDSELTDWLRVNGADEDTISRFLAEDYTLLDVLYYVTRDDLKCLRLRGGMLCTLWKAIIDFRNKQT
Chain of Serine/threonine-protein kinase Chk2 (Homo sapiens) (O96017 whole entry): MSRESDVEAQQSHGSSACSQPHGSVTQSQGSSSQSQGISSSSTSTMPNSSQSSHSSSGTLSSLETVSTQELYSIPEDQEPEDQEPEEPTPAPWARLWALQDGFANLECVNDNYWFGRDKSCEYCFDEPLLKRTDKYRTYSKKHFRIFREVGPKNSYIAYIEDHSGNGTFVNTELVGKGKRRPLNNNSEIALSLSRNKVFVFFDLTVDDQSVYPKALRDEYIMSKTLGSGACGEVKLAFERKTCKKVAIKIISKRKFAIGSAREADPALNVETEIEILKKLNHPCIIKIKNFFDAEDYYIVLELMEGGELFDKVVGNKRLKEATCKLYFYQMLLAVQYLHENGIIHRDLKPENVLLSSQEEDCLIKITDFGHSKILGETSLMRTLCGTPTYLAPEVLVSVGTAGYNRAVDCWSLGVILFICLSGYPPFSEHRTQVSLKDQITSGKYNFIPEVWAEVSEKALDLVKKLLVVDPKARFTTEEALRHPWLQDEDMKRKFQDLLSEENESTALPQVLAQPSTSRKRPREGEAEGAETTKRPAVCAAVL
Chain of Serine/threonine-protein kinase 4 (Homo sapiens) (Q13043 whole entry, canonical isoform): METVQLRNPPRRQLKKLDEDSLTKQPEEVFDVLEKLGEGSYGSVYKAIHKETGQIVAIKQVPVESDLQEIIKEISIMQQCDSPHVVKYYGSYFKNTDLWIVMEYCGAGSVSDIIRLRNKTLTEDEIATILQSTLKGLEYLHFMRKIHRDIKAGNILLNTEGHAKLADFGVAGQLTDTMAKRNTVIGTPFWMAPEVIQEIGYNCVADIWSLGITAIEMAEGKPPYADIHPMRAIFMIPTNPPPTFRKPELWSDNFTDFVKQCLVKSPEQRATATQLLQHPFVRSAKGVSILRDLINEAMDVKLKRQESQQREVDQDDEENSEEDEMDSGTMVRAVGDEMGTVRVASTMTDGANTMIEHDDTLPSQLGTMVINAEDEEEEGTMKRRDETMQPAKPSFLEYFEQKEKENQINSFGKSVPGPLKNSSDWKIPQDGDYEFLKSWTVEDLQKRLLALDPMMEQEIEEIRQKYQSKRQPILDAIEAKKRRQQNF
Chain of Insulin receptor (Homo sapiens) (P06213 28-758 limits assumed): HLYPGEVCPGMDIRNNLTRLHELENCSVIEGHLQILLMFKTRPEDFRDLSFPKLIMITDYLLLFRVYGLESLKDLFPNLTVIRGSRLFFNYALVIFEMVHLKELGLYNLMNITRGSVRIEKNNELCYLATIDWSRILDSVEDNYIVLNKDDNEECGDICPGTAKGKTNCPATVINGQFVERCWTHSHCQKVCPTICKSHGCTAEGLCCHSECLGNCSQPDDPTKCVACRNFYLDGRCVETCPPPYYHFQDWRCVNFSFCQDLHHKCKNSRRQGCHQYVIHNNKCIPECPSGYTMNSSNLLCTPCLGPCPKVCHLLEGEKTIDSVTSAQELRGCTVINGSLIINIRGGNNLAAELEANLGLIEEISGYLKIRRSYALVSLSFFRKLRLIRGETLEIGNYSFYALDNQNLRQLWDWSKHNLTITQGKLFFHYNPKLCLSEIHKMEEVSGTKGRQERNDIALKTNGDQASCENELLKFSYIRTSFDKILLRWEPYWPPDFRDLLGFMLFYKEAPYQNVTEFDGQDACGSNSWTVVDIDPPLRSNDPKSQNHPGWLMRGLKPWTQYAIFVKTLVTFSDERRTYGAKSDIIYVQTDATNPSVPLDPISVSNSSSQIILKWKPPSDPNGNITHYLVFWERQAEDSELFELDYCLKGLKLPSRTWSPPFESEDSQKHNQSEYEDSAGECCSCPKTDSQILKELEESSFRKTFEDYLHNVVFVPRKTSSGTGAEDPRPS
Chain of Insulin receptor (Homo sapiens) (P06213 763-1382 limits assumed): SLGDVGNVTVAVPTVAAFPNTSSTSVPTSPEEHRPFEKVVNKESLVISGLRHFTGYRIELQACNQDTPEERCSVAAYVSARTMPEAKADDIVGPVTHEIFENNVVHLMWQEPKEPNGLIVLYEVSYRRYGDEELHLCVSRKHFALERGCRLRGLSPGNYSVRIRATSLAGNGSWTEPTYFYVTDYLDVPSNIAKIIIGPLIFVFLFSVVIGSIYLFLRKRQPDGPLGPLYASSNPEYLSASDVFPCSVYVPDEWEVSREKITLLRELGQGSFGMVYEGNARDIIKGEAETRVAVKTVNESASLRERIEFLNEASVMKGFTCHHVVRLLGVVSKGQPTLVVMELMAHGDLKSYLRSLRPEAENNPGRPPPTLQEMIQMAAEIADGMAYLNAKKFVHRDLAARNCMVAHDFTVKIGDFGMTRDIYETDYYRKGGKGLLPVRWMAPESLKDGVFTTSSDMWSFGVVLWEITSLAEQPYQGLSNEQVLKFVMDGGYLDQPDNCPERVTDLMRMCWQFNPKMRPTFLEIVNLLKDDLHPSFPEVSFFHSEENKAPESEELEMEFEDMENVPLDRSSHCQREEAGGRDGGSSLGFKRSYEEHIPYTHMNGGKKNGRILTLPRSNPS

SMILES | inhibition [1] | residual activity [2] | residual activity [3] | residual activity [4] | residual activity [5] | residual activity [6] | residual activity [7] | residual activity [8] | residual activity [9] | % Inhibition of Control Specific Binding (Mean n=2) [10] | residual activity [11] | residual activity [12] | residual activity [13] | inhibition [14] | residual activity [15] | residual activity [16] | residual activity [17] | residual activity [18] | residual activity [19] | residual activity [20] | other results
O=C(NS(=O)(=O)c1ccc(NCC2CCOCC2)c([N+](=O)[O-])c1)c1ccc(N2CCN(Cc3ccc(C(F)(F)F)cc3-c3ccc(Cl)cc3)CC2)cc1Oc1cnc2[nH]ccc2c1 [A-1210227] | -3.92% | 100% | 89% | 95% | 88% | 100% | 100% | 85% | 82% | 8.9% | 100% | 82% | 83% | -2.34% | 90% | 76% | 100% | 94% | 100% | 94% | % Inhibition of Control Specific Binding (Mean n=2) [21]: -42%; residual activity [22]: 96%; inhibition [23]: 11.1%; residual activity [24]: 84%; residual activity [25]: 82%; residual activity [26]: 89%; % Inhibition of Control Specific Binding (Mean n=2) (Rattus norvegicus): -4.8%; residual activity [27]: 100%; % Inhibition of Control Specific Binding (Mean n=2) [28]: 3.7%; residual activity [29]: 97%; residual activity [30]: 87%; residual activity [31]: 88%; residual activity [32]: 100%; residual activity [33]: 89%; % Inhibition of Control Specific Binding (Mean n=2) [34]: 3.5%; residual activity [35]: 86%; residual activity [36]: 100%; residual activity [37]: 100%; % Inhibition of Control Specific Binding (Mean n=2) [38]: -2.1%
CO[C@H]1CC[C@H](CNc2ccc(S(=O)(=O)NC(=O)c3ccc(N4CCN(CC5=C(c6ccc(Cl)cc6)CC(C)(C)CC5)CC4)cc3Oc3cnc4[nH]ccc4c3)cc2[N+](=O)[O-])CC1 [A-1211212] | 5.68% | 84% | 76% | 89% | 87% | 100% | 88% | 83% | 100% | 10.3% | 100% | 78% | 89% | 3.54% | 100% | 78% | 100% | 84% | 96% | 92% | % Inhibition of Control Specific Binding (Mean n=2) [21]: -20.3%; residual activity [22]: 56%; inhibition [23]: 49.8%; residual activity [24]: 73%; residual activity [25]: 87%; residual activity [26]: 91%; % Inhibition of Control Specific Binding (Mean n=2) (Rattus norvegicus): -12.6%; residual activity [27]: 86%; % Inhibition of Control Specific Binding (Mean n=2) [28]: -4.1%; residual activity [29]: 83%; residual activity [30]: 72%; residual activity [31]: 100%; residual activity [32]: 81%; residual activity [33]: 89%; % Inhibition of Control Specific Binding (Mean n=2) [34]: 4.2%; residual activity [35]: 71%; residual activity [36]: 100%; residual activity [37]: 100%; % Inhibition of Control Specific Binding (Mean n=2) [38]: -15.7%
